Test results: publication PMC7582727, “Functional Impact of BeKm-1, a High-Affinity hERG Blocker, on Cardiomyocytes Derived from Human-Induced Pluripotent Stem Cells” (International Journal of Molecular Sciences, 2020)
Positions of bridges follow the written chain, without caps; N, C: chain ends. Residues, ends and D or L forms follow the SMILES beside them.

Key:
hiPS-CMs monolayers = experiment: Contraction (impedance) of hiPS-CM monolayers (CardioExcyte 96); type: cell-based, human
Protocol: The results described above on the excitability alterations of hiPS-CMs indicate that BeKm-1 should also impair excitation–contraction coupling (ECC) in these cells. In spontaneously beating cardiomyocytes, the toxin should impact the contractility in a coherent manner with spontaneous APs and CaT. We investigated the contractions using the CardioExcyte 96 system. […] Coherent with the proarrhythmic properties of 2 nM of BeKm-1, both the mean SD1, the standard deviation of instantaneous contraction-to-contraction interval variability, and SD2, the continuous long-term interval variability, increased by 2- and 1.7-fold, respectively (Figure S5I).
hiPS-CMs: All experiments were performed on the human-induced pluripotent stem cell (hiPSC) clone C2a that has been previously characterized, including cardiac differentiation and electrophysiology data. Cells were expanded on stem cell-qualified matrigel-coated plates (0.05 mg/mL; BD Bioscience, Le Pont de Claix, France) and cultured in StemMACS iPS-BREW XF medium (Miltenyi Biotec, Paris, France). Cells were passaged every […] using Gentle Cell Dissociation Buffer (StemCell Technologies, Grenoble, France). Prior to differentiation, cells were cultured as a monolayer in StemMACS iPS-brew supplemented with 1 × Y-27632 Rho-associated, coiled-coil containing protein kinase (ROCK) inhibitor (StemCell Technologies, Grenoble, France). When hiPSCs reached proper confluence, they were differentiated into cardiomyocytes using previously described « Matrix sandwich » protocol. At day 20 ± 1 of differentiation, beating cardiomyocytes were manually dissected and isolated from non-beating cells. Briefly, cardiomyocytes were washed with phosphate-buffered saline (PBS) and treated with TrypLE Express (10x) (Thermo Fisher Scientific, Illkirch-Graffenstaden, France) for 5 min at 37 °C. The enzyme was inactivated by adding RPMI1640 medium containing 20% (vol/vol) KnockOut Serum Replacement (KSR) (Thermo Fisher Scientific, Illkirch-Graffenstaden, France). The supernatant was removed, and cells were suspended in RPMI1640 medium containing 20% (vol/vol) KSR and ROCK inhibitor. Then, the cells were plated on specific supports suitable for functional assessments.
The beating properties and the electrical field potentials of hiPS-CMs were evaluated with a CardioExcyte96 system. After dissociation, hiPS-CMs were seeded on NSP-96 Sensor Plates (Nanion Technologies, Munich, Germany) at a density of 40,000 viable cells per well. Sensor plates were previously coated with 10 µg/mL fibronectin for 1 h at 37 °C. The cells were maintained at 37 °C, and the medium was replaced every 2 days for 1 week. On the day of beating assessment, the whole medium was replaced 4 h prior to experiments, and cells were incubated at 37 °C onto the CardioExcyte96 system. Meanwhile, cells were monitored to ensure the full stabilization of beating parameters until BeKm-1 was tested at various concentrations ([…]). Tfall and Trise were determined as the time between 10% and 90% of contraction or relaxation, respectively. Pulse width (PWx) was determined as the time corresponding to the width of the signal at 90% of relaxation. Electric field potentials (EFPs) were recorded using CardioExcyte96 system. For both contraction and EFPs, 10 sequences of 30 s of acquisition were analyzed before and after BeKm-1 addition. The CardioExcyte system is best to analyze the kinetic parameters of the contractile properties of hiPS-CMs but has intrinsic limitations to assess properly variations in contractile force.

hERG channel = settings: cited from earlier work
Excerpt: The Kv11.1 channel (hERG) and the corresponding IKr current play a major role in cardiac repolarization (Figure S1). […] Long QT syndrome is one of the cardiac diseases that has been studied in the greatest detail. Type II long QT syndrome is associated with a decrease in IKr currents, as opposed to short QT syndrome, which is associated with increased IKr currents. Type II long QT syndrome is called “inherited” when a mutation in the gene encoding hERG, KCNH2, gives rise to a loss of ... || In this report, we focused on BeKm-1, a toxin that was originally isolated from the venom of Buthus eupeus scorpion. […] According to its 3D structure, the peptide adopts an α-helix and three β-strands organized in a twisted antiparallel β-sheet. By homology with other toxins, BeKm-1 is a member of the γ-KTx subfamily of scorpion toxins.

[1] = 2 nM vs vehicle, n = 8 monolayers

## CC[C@H](C)[C@H](NC(=O)[C@H](CC(=O)O)NC(=O)[C@@H](NC(=O)[C@@H]1CCCN1C(=O)[C@@H](N)CCCNC(=N)N)[C@@H](C)O)C(=O)N[C@@H](CCCCN)C(=O)N[C@H]1CSSC[C@@H]2NC(=O)[C@H](CCCNC(=N)N)NC(=O)CNC(=O)[C@H](CC(N)=O)NC(=O)[C@H]([C@@H](C)O)NC(=O)[C@H](CCCCN)NC(=O)CNC(=O)[C@H](Cc3ccccc3)NC(=O)[C@H](CCCNC(=N)N)NC(=O)[C@H](CO)NC(=O)[C@H](CCCCN)NC(=O)[C@@H]3CSSC[C@@H](C(=O)N[C@@H](Cc4ccccc4)C(=O)O)NC(=O)[C@H](CC(=O)O)NC(=O)[C@H](CSSC[C@H](NC(=O)[C@H](CCC(N)=O)NC(=O)[C@H](Cc4ccc(O)cc4)NC(=O)[C@H](CO)NC(=O)[C@H](CCC(=O)O)NC(=O)[C@H](CO)NC1=O)C(=O)N[C@@H](Cc1ccccc1)C(=O)N1CCC[C@H]1C(=O)N[C@@H](C(C)C)C(=O)N3)NC(=O)[C@H](Cc1ccccc1)NC(=O)CNC(=O)[C@H](CC(N)=O)NC(=O)[C@H](C(C)C)NC2=O [BeKm-1] (H-RPTDIKCSESYQCFPVCKSRFGKTNGRCVNGFCDCF-OH; disulfide 7-28, 13-33, 17-35 (inferred); N-terminus and C-terminus assumed)
hiPS-CMs monolayers; 2 nM
  contraction amplitude: not significantly different from the control
  pulse width PW95: significant alteration
  pulse widths PW30, PW70 and PW90: none of the pulse widths (PW) PW30, PW70, and PW90 parameters were significantly altered
hiPS-CMs monolayers; 2 nM vs vehicle
  interbeat interval increase: 16.7%
  slowing of relaxation phase: 19.8%
  slowing of rising phase of contraction: 1.29 -fold
hiPS-CMs monolayers; [1]
  SD1 increase (instantaneous contraction-to-contraction interval variability): 2 -fold
  SD2 increase (continuous long-term interval variability): 1.7 -fold
hiPS-CMs monolayers; 2 nM, 37 °C, vehicle 2.03 ± 0.1 s, n = 8, mean ± SEM
  interbeat interval: 2.37 ± 0.2 s
hiPS-CMs monolayers; 2 nM, 37 °C, vehicle 203.5 ± 11.3 ms, n = 8, mean ± SEM
  duration of rising phase of contraction (Trise): 262.6 ± 16.9 ms
hiPS-CMs monolayers; 2 nM, 37 °C, vehicle 719.2 ± 45.8 ms, n = 8, mean ± SEM
  duration of relaxation phase (Tfall): 862.1 ± 82.0 ms
hiPS-CMs monolayers; 2 nM, Poincaré plot
  interbeat interval and its variability: significantly increased
hERG channel; in cardiomyocytes, no ref at the statement
  selectivity for hERG: highly selective for the hERG channel in cardiomyocytes
hERG channel; read-out: IC50, hERG (reported), ref [1],[2],[3],[4]
  IC50: 3.3 to 15.3 nM
hERG channel; ref [1]
  other targets: no other targets have been reported
hERG channel; ref [4]
  channel state blocked: blocks the closed state of the channel
hERG channel; ref [9]
  binding site (face of channel): preferentially binds the hERG outer mouth
